Tests used:
Ca2^+ and Na+ overload = conditions: preclinical; Chahine et al. doi: 10.1016/j.yjmcc.2005.01.003; Bkaily and Jacques doi: 10.1139/cjpp-2017-0265; cited from earlier work
[1] = tested on: isolated rat soleus muscle; experiment: Ex vivo model of residual muscle force (fatigue) in isolated rat soleus muscle after sodium overload by high NaCl (200 mM) buffer; set-up: species or system rat (female Sprague Dawley); conditions: for residual contractile force compared with baseline control: drug concentrations of 30 to 500 nM, added 10 min before 30 min in 200 mM NaCl buffer, then stimulation in physiological NaCl buffer, 30 °C, pH 7.4, controls without inhibitor 10% to 20%; for effect on rat soleus muscle force decline: high NaCl (200 mM) protocol, result in words
Source text: The claim of this patent is that NHE1 inhibitors can improve disturbed body function and symptoms of ME/CFS, as an example of diseases associated with chronic fatigue (DACF). Muscular fatigue and loss of force (e.g., loss of handgrip strength) is a hallmark in ME/CFS patients. A main target of NHE1 inhibition is the skeletal muscle whose energetic function is deeply disturbed in ME/CFS and which is presumed to be very important in the symptomatology of ME/CFS. NHE1 activity plays a key role in the development of the disturbances by a rise in intramuscular sodium that finally leads to calcium overload. The latter causes a deep functional energetic disturbance or damage. The isolated rat muscle either soleus muscle or extensor digitorum longus muscle is a well-characterized and well-validated model for the study of the function of ion exchangers. The isolated rat soleus muscle is particularly appropriate for experiments ex vivo as it is very thin so that there is no need for blood supply. […] In this experimental setting, a high NaCl concentration buffer causes sodium influx to disturb and decrease excitability and to disturb calcium homeostasis to subsequently reduce muscle force. Inhibition of the NHE1, which exchanges one proton for the uptake of one sodium ion, reduces sodium entry and overload. Prevention or diminution of a loss of muscular force in this procedure indicates effective inhibition of NHE1 by a test compound with the described mode of action of NHE1-inhibition.
The decline in force in the soleus muscle can be considered as muscular fatigue and related to the loss of hand grip muscular strength in ME/CFS patients. The described ex vivo model is suited for testing the effect of NHE1 inhibitors and in particular their effect on force generation disturbed by mechanisms that worsen excitability or the energetic situation or calcium homeostasis via the sodium-calcium-exchanger. High NaCl in a buffer (200 mM) is used to cause intracellular sodium loading leading to a decline in contractile force.
The resulting decline in muscular force is considered as muscular fatigue. In the absence of electrical stimulation avoiding sodium entry by sodium channels the sodium influx during high NaCl exposure is due to the NHE1. Inhibition of NHE1 can prevent sodium overload and a decline in muscular force and fatigue.
Muscle preparation and incubation: Female Sprague Dawley rats of 5 weeks of age are used. After isoflurane anesthesia and cervical dislocation the intact soleus muscles of the animals is dissected. […]
Force measurement: The experimental set-up for force measurements allows for the simultaneous recordings from 6 muscles in separate incubation chambers in parallel. Force is recorded and stored with a Notocord HEM data acquisition system. […]

[2] = tested on: myocardial infarction and dystrophic cardiomyopathy including DMD; conditions: animal models; Ghaleh et al. doi: 10.1016/j.ijcard.2020.03.031; cited from earlier work

Structure (SMILES)	effect in preventing the deleterious effects of Ca2^+ and Na+ overload (Ca2^+ and Na+ overload)	residual contractile force compared with baseline control [1]	effect on rat soleus muscle force decline [1]	cardioprotective effects [2]
Cc1cc(S(C)(=O)=O)c(S(C)(=O)=O)cc1C(=O)N=C(N)N [Rimeporide, N-(4,5-bismethanesulfonyl-2-methylbenzoyl)guanidine]	beneficial effects	50-70%	diminished the loss of force	cardioprotective effects
CC(C)c1ccc(C(=O)NC(=N)N)cc1S(C)(=O)=O [Cariporide]	beneficial effects	50-70%	diminished the loss of force	cardioprotective effects

Reference: patent publication US20260345530A1, “Use of a Therapeutic Agent with Sodium-Hydrogen Antiporter 1 Inhibitory Activity for the Treatment and Prevention of Diseases Associated with Chronic Fatigue, Exhaustion and/or Exertional Intolerance” (MITODICURE GMBH, priority 2022, published 2026)
